# Where “and” joins values, the source holds several entries; their conditions need not be identical. Equal entries are not always repeated.
# Assays:
# ticks = experiment: Shell-vial bioassay of morbidity and mortality of ticks; format: in vivo; details: for LC50: calculated at 24 hours from Table No. 7
# Protocol: Next, a shell-vial bioassay was performed to determine whether the nootkatone of the test products (i.e., space spray, lotion, and soap) lost biocidal activity due to the formulation process. The nootkatone derivatives from Example No. 1 were also tested to determine relative biocidal activity. Serial dilutions of each 2% product and nootkatone derivatives were made for a total of 8 concentrations per formulation/derivative. Controls included untreated controls and a nootkatone in acetone composition as a positive control. One hundred and fifty microliters of each concentration was added to a 1 dram glass shell vial and allowed to dry (see FIGS. 3A and 3B).
# Each shell vial with ticks added was placed in a humid container, and morbidity and mortality of ticks were determined at 1 hr and 24 hr post-treatment. Each experiment was performed twice and the results averaged. […]
# [1] = Solvent dissolution tests of nootkatone; format: physicochemical; details: data not shown
# Protocol: Initially, solvent dissolution tests of nootkatone were performed.
Compound,"# Alive/10 (ticks; 0.002%, 1 hr)","# Alive/10 (ticks; 0.002%, 24 hr)","# Alive/10 (ticks; 0.004%, 1 hr)","# Alive/10 (ticks; 0.004%, 24 hr)","# Alive/10 (ticks; 0.008%, 1 hr)","# Alive/10 (ticks; 0.008%, 24 hr)","# Alive/10 (ticks; 0.016%, 1 hr)","# Alive/10 (ticks; 0.016%, 24 hr)","# Alive/10 (ticks; 0.031%, 1 hr)","# Alive/10 (ticks; 0.031%, 24 hr)","# Alive/10 (ticks; 0.063%, 1 hr)","# Alive/10 (ticks; 0.063%, 24 hr)","# Alive/10 (ticks; 0.125%, 1 hr)","# Alive/10 (ticks; 0.125%, 24 hr)","# Alive/10 (ticks; 0.25%, 1 hr)","# Alive/10 (ticks; 0.25%, 24 hr)",LC50 (ticks) [%],further results
"CC(C)C1CCC2=CC(=O)CC(C)C2(C)C1 (stereo not shown) [11,12 dihydronootkatone, 11,12-dihydronootkatone]",10,6,10,7,10,1,10,0,10,0,10,0,2,0,2,0,0.0071,
"CC(C)[C@@H]1CCC2CC(=O)C[C@@H](C)[C@]2(C)C1 (stereo partly shown) [Tetrahydronootkatone, tetrahydronootkatone]",10,10,10,10,9,9,7,7,7,7,6,5,6,4,5,1,0.0780,
"C=C(C)[C@@H]1CCC2=CC(=O)C[C@@H](C)[C@]2(C)C1 [Nootkatone, nootkatone]",,,,,,,,,,,,,,,3 and 2,0,,"dissolution of nootkatone in solvent ([1]; glycerin): unable to successfully dissolve; dissolution of nootkatone in solvent ([1]; water): unable to successfully dissolve; # Alive/10 (ticks; 0.01%, 1 hr): 7 and 5; # Alive/10 (ticks; 0.01%, 24 hr): 5 and 7; # Alive/10 (ticks; 0.02%, 1 hr): 5; # Alive/10 (ticks; 0.02%, 24 hr): 0; # Alive/10 (ticks; 0.03%, 1 hr): 4; # Alive/10 (ticks; 0.03%, 24 hr): 0; # Alive/10 (ticks; 0.06%, 1 hr): 4; # Alive/10 (ticks; 0.06%, 24 hr): 0; # Alive/10 (ticks; 0.13%, 1 hr): 4; # Alive/10 (ticks; 0.13%, 24 hr): 0; # Alive/10 (ticks; 0.5%, 24 hr): 0; LC50 (ticks; listed as Nootkatone control): 0.0074% and 0.0073%"
"C=C(C)[C@@H]1CCC2CC(=O)C[C@@H](C)[C@]2(C)C1 (stereo partly shown) [1,10 dihydronootkatone, 1,10-dihydronootkatone]",10,9,10,10,10,6,10,6,10,3,10,1,10,2,10,1,0.0097,

# Reference: patent publication US20190069542A1, “COMPOSITIONS AND METHODS FOR REPELLING AND KILLING TICKS AND DETACHMENT OF FEEDING TICKS” (EVOLVA SA, priority 2016, published 2019)
